Assay results published in patent publication US8445503B2, “Inhibitors of polo-like kinase” (Elan Pharmaceuticals, Inc., priority 2009, dated 2013).

Tests used:
GST-PLK3 = target: T1, GST-PLK3 (Homo sapiens, UniProt Q9H4B4); experiment: PLK TR-FRET peptide assay, PLK3; assay type: biochemical; conditions: PLK TR-FRET peptide assay, GST-PLK3; read-out: Plk3 IC50
T1 construct: purchased CarnaBio

PLK2 = PLK2 (Homo sapiens, UniProt Q9NYY3); experiment: Kinase panel screening at InVitrogen Corporation, PLK2; conditions: screening at 10 μM compound
Chain of PLK2 (Q9NYY3 whole entry): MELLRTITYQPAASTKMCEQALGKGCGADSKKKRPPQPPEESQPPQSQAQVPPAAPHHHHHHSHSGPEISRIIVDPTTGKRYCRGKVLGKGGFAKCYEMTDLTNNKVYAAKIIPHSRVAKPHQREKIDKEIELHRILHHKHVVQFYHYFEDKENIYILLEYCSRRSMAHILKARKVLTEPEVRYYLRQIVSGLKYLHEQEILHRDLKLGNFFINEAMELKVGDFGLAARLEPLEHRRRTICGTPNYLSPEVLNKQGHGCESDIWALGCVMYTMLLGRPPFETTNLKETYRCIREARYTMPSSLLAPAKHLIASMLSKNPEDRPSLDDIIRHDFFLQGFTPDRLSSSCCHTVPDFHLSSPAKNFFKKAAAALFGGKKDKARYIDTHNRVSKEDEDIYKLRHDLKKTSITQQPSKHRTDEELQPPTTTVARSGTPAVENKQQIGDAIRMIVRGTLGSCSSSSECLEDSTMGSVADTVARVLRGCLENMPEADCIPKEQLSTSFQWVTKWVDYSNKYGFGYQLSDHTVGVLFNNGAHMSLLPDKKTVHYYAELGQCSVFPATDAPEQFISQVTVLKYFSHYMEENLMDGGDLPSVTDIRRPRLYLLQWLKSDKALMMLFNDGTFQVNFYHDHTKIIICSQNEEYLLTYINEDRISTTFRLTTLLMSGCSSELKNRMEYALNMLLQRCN

GST-PLK1 = GST-PLK1 (Homo sapiens, UniProt P53350); experiment: PLK TR-FRET peptide assay, PLK1; assay type: biochemical; conditions: read-out: Plk1 IC50
Chain of GST-PLK1 (P53350 whole entry): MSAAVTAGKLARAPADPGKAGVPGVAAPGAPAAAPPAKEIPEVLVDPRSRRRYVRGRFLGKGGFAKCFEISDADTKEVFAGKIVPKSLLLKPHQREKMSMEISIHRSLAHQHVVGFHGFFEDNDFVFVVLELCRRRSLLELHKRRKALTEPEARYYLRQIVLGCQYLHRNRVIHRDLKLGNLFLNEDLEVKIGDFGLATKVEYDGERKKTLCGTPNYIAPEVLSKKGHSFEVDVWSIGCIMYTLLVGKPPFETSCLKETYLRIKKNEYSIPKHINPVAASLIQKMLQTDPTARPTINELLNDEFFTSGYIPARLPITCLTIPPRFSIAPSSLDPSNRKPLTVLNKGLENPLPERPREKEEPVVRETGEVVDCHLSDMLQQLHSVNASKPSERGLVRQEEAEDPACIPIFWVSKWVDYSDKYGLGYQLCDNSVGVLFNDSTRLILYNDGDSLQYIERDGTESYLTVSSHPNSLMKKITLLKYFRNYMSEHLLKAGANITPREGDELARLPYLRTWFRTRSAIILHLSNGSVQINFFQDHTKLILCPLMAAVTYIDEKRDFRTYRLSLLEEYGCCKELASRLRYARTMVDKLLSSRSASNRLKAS

GST-PLK2 = target: T2, GST-PLK2 (Homo sapiens, UniProt Q9NYY3); experiment: PLK TR-FRET peptide assay, PLK2; assay type: biochemical; conditions: for IC50: PLK TR-FRET peptide assay, GST-PLK2, read-out: Plk2 IC50
T2 construct: purchased CarnaBio
T2 sequence (Q9NYY3 whole entry): as the sequence (Q9NYY3 whole entry) above

PLK1 = PLK1 (Homo sapiens, UniProt P53350); experiment: Kinase panel screening at InVitrogen Corporation, PLK1; conditions: screening at 10 μM compound
Chain of PLK1 (P53350 whole entry): as the sequence (P53350 whole entry) above

ABL1 = ABL1 (Homo sapiens, UniProt P00519); experiment: Kinase panel screening and titration, ABL1
Chain of ABL1 (P00519 whole entry): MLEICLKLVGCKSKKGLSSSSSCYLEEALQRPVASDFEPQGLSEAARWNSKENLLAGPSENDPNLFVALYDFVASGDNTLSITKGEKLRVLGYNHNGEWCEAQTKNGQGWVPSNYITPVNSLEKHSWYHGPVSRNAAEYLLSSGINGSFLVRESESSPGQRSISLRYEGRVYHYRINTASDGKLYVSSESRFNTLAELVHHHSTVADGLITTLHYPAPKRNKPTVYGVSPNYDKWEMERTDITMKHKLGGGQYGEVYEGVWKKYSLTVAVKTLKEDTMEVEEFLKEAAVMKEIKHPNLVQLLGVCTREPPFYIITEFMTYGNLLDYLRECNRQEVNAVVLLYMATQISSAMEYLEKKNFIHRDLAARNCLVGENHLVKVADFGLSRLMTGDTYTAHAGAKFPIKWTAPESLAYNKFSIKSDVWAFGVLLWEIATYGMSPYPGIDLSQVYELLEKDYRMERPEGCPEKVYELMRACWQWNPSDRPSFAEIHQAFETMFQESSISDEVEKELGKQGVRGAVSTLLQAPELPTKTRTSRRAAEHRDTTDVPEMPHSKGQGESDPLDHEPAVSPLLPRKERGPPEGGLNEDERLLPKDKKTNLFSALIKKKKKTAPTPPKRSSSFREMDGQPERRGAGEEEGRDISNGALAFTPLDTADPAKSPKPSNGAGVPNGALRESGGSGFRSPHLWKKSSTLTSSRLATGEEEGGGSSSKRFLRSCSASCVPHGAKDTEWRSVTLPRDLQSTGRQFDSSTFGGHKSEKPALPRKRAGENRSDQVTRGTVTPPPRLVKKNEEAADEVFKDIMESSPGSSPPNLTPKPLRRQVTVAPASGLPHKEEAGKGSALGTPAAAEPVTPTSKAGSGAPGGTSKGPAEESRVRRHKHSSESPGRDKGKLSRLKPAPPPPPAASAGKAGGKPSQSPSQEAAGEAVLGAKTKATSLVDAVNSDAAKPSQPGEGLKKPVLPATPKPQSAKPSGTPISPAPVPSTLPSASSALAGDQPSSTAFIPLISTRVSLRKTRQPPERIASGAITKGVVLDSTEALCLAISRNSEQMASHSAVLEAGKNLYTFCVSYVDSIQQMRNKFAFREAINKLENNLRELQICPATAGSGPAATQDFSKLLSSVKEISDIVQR

KDR = KDR (Homo sapiens, UniProt P35968); experiment: Kinase panel screening and titration, KDR
Chain of KDR (P35968 20-1356): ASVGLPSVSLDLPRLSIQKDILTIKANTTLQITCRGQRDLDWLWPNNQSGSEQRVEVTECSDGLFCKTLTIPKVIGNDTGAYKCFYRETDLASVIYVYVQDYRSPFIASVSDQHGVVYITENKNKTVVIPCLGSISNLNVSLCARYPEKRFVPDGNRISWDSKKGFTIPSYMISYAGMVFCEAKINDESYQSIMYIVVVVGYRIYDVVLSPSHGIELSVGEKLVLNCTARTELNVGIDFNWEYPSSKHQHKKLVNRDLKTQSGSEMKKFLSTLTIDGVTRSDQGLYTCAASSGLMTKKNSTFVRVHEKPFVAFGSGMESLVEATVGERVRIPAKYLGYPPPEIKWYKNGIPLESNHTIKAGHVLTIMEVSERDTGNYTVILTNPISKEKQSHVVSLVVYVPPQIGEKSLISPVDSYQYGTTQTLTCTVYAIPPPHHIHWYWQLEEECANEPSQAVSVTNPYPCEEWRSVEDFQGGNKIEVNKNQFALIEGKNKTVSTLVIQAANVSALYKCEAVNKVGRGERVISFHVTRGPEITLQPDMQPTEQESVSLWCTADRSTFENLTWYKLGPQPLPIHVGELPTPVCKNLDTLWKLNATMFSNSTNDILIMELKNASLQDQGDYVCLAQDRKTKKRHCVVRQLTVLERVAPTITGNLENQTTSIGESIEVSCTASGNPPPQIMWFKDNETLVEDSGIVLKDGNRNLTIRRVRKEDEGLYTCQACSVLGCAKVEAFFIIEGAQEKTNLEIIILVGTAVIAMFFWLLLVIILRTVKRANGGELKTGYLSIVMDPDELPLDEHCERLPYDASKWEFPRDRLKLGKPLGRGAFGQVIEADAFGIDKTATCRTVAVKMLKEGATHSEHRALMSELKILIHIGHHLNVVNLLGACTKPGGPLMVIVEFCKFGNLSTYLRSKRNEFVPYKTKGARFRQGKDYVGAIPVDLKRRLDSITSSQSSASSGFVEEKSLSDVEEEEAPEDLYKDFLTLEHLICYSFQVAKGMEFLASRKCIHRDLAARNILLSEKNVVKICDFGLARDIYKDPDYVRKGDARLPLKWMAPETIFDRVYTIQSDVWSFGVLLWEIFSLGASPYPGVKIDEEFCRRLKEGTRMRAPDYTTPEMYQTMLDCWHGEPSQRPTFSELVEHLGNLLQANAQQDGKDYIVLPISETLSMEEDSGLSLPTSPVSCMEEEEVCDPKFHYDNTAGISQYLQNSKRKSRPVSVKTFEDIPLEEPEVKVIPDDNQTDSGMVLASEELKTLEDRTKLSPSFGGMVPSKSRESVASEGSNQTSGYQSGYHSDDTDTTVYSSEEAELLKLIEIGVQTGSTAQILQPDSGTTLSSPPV

[1] = system: over 300 kinases, including CDK-1, CDK-2, CDK-5, CLK-1, CLK-2, CLK-3, CLK-4, NEK-1, NEK-2, NEK-4, NEK-6, NEK-7, MAP4K4 and STK16; experiment: Kinase panel screening at InVitrogen Corporation, over 300 kinases; conditions: 10 μM compound; all but 21 of over 300 kinases, including CDK-1, CDK-2, CDK-5, CLK-1 to CLK-4, NEK-1, -2, -4, -6, -7, MAP4K4, STK16

T1 sequence (Q9H4B4 whole entry): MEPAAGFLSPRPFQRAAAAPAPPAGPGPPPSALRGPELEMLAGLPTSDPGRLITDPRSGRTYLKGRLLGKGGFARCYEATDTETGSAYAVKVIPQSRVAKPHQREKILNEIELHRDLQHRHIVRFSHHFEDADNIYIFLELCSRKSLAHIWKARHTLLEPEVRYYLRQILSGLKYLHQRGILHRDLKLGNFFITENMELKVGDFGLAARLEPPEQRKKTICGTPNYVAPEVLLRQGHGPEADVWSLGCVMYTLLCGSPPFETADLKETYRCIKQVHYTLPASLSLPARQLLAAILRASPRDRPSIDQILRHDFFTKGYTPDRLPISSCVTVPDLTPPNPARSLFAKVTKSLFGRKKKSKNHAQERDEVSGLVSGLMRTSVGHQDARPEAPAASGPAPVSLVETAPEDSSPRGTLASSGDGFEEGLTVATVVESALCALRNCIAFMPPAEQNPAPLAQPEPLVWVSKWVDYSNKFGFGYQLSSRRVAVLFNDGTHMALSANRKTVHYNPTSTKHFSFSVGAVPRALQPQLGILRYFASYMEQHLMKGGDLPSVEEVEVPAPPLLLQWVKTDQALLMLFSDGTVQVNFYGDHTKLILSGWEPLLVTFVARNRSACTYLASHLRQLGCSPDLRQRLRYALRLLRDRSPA

SMILES | IC50 (GST-PLK3) [µM] | activity against PLK2 in kinase panel (PLK2) | IC50 (GST-PLK1) [µM] | IC50 (GST-PLK2) [µM] | activity against PLK1 in kinase panel (PLK1) | other results
CC[C@@H]1C(=O)N(C)c2cnc(-n3ccnc3-c3ccccc3)nc2N1C1CCCC1 [Example 26, (R)-8-cyclopentyl-7-ethyl-5-methyl-2-(2-phenyl-1H-imidazol-1-yl)-7,8-dihydropteridin-6(5H)-one] | – | potent | – | – | – | –
CC[C@@H]1C(=O)N(C)c2cnc(-n3ccnc3-c3cscn3)nc2N1C1CCCC1 [Example 68] | – | potent | – | – | potent | –
CC[C@@H]1C(=O)N(C)c2cnc(-n3ccnc3)nc2N1C1CCCC1 [Example 3, (R)-8-cyclopentyl-7-ethyl-2-(1H-imidazol-1-yl)-5-methyl-7,8-dihydropteridin-6(5H)-one] | 10 to 50 | – | < 1 | < 1 | – | –
CC[C@@H]1C(=O)N(C)c2cnc(-n3cnc(C(=O)NC)c3)nc2N1C1CCCC1 [Example 46, (R)-1-(8-cyclopentyl-7-ethyl-5-methyl-6-oxo-5,6,7,8-tetrahydropteridin-2-yl)-N-methyl-1H-imidazole-4-carboxamide] | 1 to 10 | – | < 1 | < 1 | – | –

More lines, main results first:

IC50 (GST-PLK3) [µM] | activity against PLK2 in kinase panel (PLK2) | IC50 (GST-PLK1) [µM] | IC50 (GST-PLK2) [µM] | activity against PLK1 in kinase panel (PLK1) | SMILES | other results
1 to 10 | potent | 10 to 50 | < 1 | potent | CC[C@@]12CCCN1c1nc(-n3ccnc3-c3ccccc3)ncc1N(C)C2=O [Example 76, (S)-6a-ethyl-5-methyl-2-(2-phenyl-1H-imidazol-1-yl)-6a,7,8,9-tetrahydropyrrolo[2,1-h]pteridin-6(5H)-one] | –
– | potent | – | – | potent | CC[C@@H]1C(=O)N(C)c2cnc(-n3ccnc3-c3cccc(F)c3)nc2N1C1CCOC1 (stereo partly shown) [Example 192] | percent inhibition of ABL1 (ABL1; 10 μM compound): greater than 80%; IC50 (ABL1; read-out: IC50 ABL1, when titrated): > 10 µM; percent inhibition of KDR (KDR; 10 μM compound): greater than 80%; IC50 (KDR; read-out: IC50 KDR, when titrated): > 10 µM; percent inhibition of kinase [1]: below 40%
> 50 | – | > 50 | 1 to 10 | – | CC[C@@]12COCCN1c1nc(-c3snnc3-c3ccc(F)cn3)ncc1N(C)C2=O [Example 415, (S)-6a-ethyl-2-(4-(5-fluoropyridin-2-yl)-1,2,3-thiadiazol-5-yl)-5-methyl-6a,7,9,10-tetrahydro-[1,4]oxazino[3,4-h]pteridin-6(5H)-one] | –
10 to 50 | – | 10 to 50 | < 1 | – | CC[C@@]12COCCN1c1nc(-n3ccnc3-c3ccc(F)cc3F)ncc1N(C)C2=O [Example 376, (S)-2-(2-(2,4-difluorophenyl)-1H-imidazol-1-yl)-6a-ethyl-5-methyl-6a,7,9,10-tetrahydro-[1,4]oxazino[3,4-h]pteridin-6(5H)-one] | PLK2 activity relative to the opposite enantiomer / other isomer (GST-PLK2; comparison of resolved enantiomers, used to assign absolute configuration): more active compound
10 to 50 | – | < 1 | < 1 | – | CCC1C(=O)N(C)c2cnc(-n3ccnc3-c3ccccc3)nc2N1N1CCCC1 (stereo not shown) [Example 280, 7-ethyl-5-methyl-2-(2-phenyl-1H-imidazol-1-yl)-8-(pyrrolidin-1-yl)-7,8-dihydropteridin-6(5H)-one] | –
